How the values were obtained:
karpas 299 cells = experiment: Measurement of inhibition of cell proliferation (Karpas), ATPlite; format: cell-based
Experimental: Measurement of Inhibition of Cell Proliferation (Karpas):
The antiproliferative activities of the compounds were measured using the ATPlite technique (Perkin Elmer).
The non-adhering cells (karpas 299) are seeded in 96-well plates (300 000 cells/ml) on Day 1 at a concentration compatible with logarithmic growth for 72 hours required for evaluation of the compounds. All the cells are treated on Day 1, then placed in an incubator at 37° C. under 5% CO2 atmosphere. Cell viability is evaluated on Day 4 by assay of released ATP, characteristic of viable cells. The IC50 values are determined by non-linear regression on the basis of a sigmoid model of dose/response relationship, Hill's slope coefficient being left variable, performed using GraphPad software sequence with the supplied algorithm.

ALK kinase = ALK kinase (Homo sapiens, UniProt Q9UM73); experiment: Test to measure ALK kinase inhibition (GST-PLCγ1 substrate, anti-phosphotyrosine ELISA, luminescence); format: biochemical; details: ALK kinase 180 ng/ml, 250 μM ATP, 30 minutes at 30° C.
Experimental: Test to Measure ALK Kinase Inhibition
A ViewPlate (Packard) is incubated with the GST-PLCγ1 substrate (purified recombinant form) at 0.1 mg/ml in phosphate buffer (PBS pH 7.4)(100 μl/well) for one hour under shaking. The plate is then saturated with a blocking solution containing 5% bovine serum albumin (BSA) (SIGMA) in PBS buffer pH 7.4.
After adding the inhibitor at the desired final concentration (usual range of 30 μM to 10 nM), the reaction is conducted by adding the ALK kinase at 180 ng/ml in 13 mM Tris reaction buffer pH 7.5 (SIGMA); 6.5 mM MgCl2 (MERCK); 0.65 mM DiThioThreitol (DTT) (ACROS); 39 mM sodium β-glycerophosphate (TCI); 0.65 mM sodium orthovanadate (SIGMA) and 250 μM ATP (SIGMA). Incubation is carried out for 30 minutes at 30° C. under shaking.
After three washings under shaking in 0.1% PBS/Tween-20 buffer (SIGMA), an anti-phosphotyrosine antibody coupled with HRP (UBI) diluted to 1/1000th in PBS/BSA buffer 5 mg/ml, is incubated for one hour under shaking. After three further washings in 0.1% PBS/Tween-20, the wells are incubated two minutes with 100 μl of SuperSignal ELISA mixture (PIERCE).
The signal is read in luminescent mode using a luminometer (MOLECULAR DEVICES SpectraMax M5e).

ALK kinase, sequence (Q9UM73 19-1620): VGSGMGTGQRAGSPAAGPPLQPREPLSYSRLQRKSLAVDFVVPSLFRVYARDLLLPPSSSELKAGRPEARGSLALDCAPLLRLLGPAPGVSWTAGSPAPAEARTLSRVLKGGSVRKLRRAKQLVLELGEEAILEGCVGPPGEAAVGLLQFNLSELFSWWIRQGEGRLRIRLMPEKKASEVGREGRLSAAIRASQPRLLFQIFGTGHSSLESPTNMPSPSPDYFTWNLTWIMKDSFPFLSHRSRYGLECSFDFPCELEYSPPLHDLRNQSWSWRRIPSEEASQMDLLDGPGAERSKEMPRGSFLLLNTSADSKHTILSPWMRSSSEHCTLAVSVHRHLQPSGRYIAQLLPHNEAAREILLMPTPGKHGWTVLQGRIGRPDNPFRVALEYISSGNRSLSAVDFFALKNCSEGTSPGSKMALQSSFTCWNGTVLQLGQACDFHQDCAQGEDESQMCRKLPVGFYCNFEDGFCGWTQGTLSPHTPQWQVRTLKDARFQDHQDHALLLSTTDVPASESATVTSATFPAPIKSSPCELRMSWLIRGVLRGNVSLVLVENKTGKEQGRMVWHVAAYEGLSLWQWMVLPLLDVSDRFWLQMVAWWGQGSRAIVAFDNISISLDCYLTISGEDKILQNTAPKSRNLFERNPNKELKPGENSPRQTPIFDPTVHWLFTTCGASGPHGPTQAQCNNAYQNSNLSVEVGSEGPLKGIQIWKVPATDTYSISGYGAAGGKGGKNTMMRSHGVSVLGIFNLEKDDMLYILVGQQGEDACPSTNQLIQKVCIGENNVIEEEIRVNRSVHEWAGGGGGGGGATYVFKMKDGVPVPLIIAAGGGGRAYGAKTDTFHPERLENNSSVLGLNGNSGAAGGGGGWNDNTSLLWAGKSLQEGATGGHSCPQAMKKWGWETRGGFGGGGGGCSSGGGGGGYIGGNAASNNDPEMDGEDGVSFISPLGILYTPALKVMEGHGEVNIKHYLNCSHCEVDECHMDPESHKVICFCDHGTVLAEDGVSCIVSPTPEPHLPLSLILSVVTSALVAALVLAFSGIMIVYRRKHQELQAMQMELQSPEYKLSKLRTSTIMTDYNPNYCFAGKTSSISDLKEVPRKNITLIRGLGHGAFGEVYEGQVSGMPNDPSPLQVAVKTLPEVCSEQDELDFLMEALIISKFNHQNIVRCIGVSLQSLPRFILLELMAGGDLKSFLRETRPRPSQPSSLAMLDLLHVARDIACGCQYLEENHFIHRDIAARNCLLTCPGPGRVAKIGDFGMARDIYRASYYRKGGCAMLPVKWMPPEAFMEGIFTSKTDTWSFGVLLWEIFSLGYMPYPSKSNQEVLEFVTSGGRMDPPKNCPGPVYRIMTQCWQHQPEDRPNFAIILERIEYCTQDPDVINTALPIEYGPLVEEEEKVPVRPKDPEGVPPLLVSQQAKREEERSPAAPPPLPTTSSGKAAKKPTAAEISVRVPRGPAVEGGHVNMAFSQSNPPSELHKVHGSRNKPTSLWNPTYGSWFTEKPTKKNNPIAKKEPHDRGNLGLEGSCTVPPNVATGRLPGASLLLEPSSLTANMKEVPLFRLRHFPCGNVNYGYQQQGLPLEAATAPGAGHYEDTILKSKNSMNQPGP

SMILES | IC50 (karpas 299 cells; Homo sapiens, KARPAS-299, 72 h) [nM] | IC50 (ALK kinase) [nM] | IC50 (karpas 299 cells; 72 hours) [nM]
N#Cc1c(-c2cc3cc[nH]c3cc2F)nc2[nH]nc(N)c2c1-c1ccc(N2CCNCC2)cc1 [Compound 233] | > 10000 | 100 to 1000 | –
CN1CCN(Cc2ccc(-c3c(C#N)c(-c4ccc(O)cc4F)nc4[nH]ncc34)o2)CC1 [Compound 85] | 1000 to 10000 | 100 to 1000 | –
Cc1n[nH]c2nc(-c3ccc(O)cc3F)c(C#N)c(-c3ccc(N(C)C)cc3)c12 [Compound 116] | 1000 to 10000 | 100 to 1000 | –
N#Cc1c(-c2ccc(O)cc2F)nc2[nH]nc(-c3cccs3)c2c1-c1ccc(N2CCNCC2)cc1 [Compound 196] | 100 to 1000 | 1000 to 10000 | –
N#Cc1c(-c2ccc(O)cc2)nc2[nH]ncc2c1-c1ccc(CN)cc1 [Compound 53] | 1000 to 10000 | 100 to 1000 | –
N#Cc1c(-c2ccc(O)cc2F)nc2[nH]nc(-c3ccc([N+](=O)[O-])cc3)c2c1-c1ccc(N2CCNCC2)cc1 [Compound 235] | 1000 to 10000 | 100 to 1000 | –
Cc1n[nH]c2nc(-c3ccc(O)cc3F)c(C#N)c(-c3ccc(N4CCC(N)CC4)o3)c12 [Compound 133] | 100 to 1000 | < 100 | –
Cc1n[nH]c2nc(-c3ccc(O)cc3F)c(C#N)c(-c3ccc(N4CCNCC4)c(N)c3)c12 [Compound 226] | 1000 to 10000 | 100 to 1000 | –
N#Cc1cc2c(-c3ccc(N4CCNCC4)cc3)n[nH]c2nc1-c1ccc(O)cc1 [Compound 102] | 100 to 1000 | < 100 | –
CCOC(=O)c1c(-c2c(F)ccc(F)c2F)nc2[nH]nc(C)c2c1-c1ccc(N2CCNCC2)cc1 [Compound 252] | 1000 to 10000 | 100 to 1000 | –
N#Cc1c(-c2ccc(O)cc2)nc2[nH]ncc2c1-c1cccs1 [Compound 52] | 1000 to 10000 | 100 to 1000 | –
N#Cc1c(-c2ccc(O)cc2)nc2[nH]ncc2c1-c1ccco1 [Compound 44] | 100 to 1000 | < 100 | –
N#Cc1c(-c2ccc(O)cc2)nc2[nH]ncc2c1-c1ccc(Cn2ccnc2)cc1 [Compound 54] | > 10000 | 1000 to 10000 | –
N#Cc1c(-c2ccc(O)cc2F)nc2[nH]nc(N)c2c1-c1ccc(C2=CCNCC2)cc1 [Compound 186] | 1000 to 10000 | < 100 | –
Cc1n[nH]c2nc(-c3ccc(O)cc3F)c(C#N)c(C(=O)NC3CCNCC3)c12 [Compound 168] | > 10000 | 1000 to 10000 | –
Cc1c(C#N)c(-c2ccc(O)cc2)nc2[nH]nc(-c3ccc(N4CCNCC4)cc3)c12 [Compound 96] | 1000 to 10000 | 100 to 1000 | –
N#Cc1c(-c2ccc(O)cc2)nc2[nH]ncc2c1-c1ccc(N2CCNCC2)cc1 [Compound 59] | 1000 to 10000 | 100 to 1000 | –
Cc1n[nH]c2nc(-c3ccc(O)cc3Cl)c(C#N)c(-c3ccc(N4CCNCC4)cc3)c12 [Compound 254] | 1000 to 10000 | 100 to 1000 | –
Cc1n[nH]c2nc(-c3ccc(O)cc3F)c(C#N)c(-c3ccc(N4CCNCC4)cc3)c12 [Compound 182] | – | < 100 | 1000 to 10000
CN1CCN(c2ccc(-c3c(C#N)c(-c4ccc(O)cc4F)nc4[nH]nc(N)c34)o2)CC1 [Compound 104] | 1000 to 10000 | < 100 | –
Cc1cc(-c2nc3[nH]nc(-c4ccco4)c3c(-c3ccc(N4CCNCC4)cc3)c2C#N)ccc1O [Compound 251] | 100 to 1000 | < 100 | –
CN(C)CC#Cc1ccc(-c2c(C#N)c(-c3ccc(O)cc3)nc3[nH]ncc23)o1 [Compound 274] | 1000 to 10000 | 1000 to 10000 | –
N#Cc1c(-c2ccc(O)cc2)nc2[nH]ncc2c1-c1ccoc1 [Compound 45] | 1000 to 10000 | 100 to 1000 | –
N#Cc1c(-c2c(F)ccc(F)c2F)nc2[nH]nc(-c3ccco3)c2c1-c1ccc(N2CCNCC2)cc1 [Compound 242] | 1000 to 10000 | 100 to 1000 | –
N#Cc1c(-c2ccoc2)nc2[nH]nc(-c3ccco3)c2c1-c1ccc(N2CCNCC2)cc1 [Compound 272] | 1000 to 10000 | 1000 to 10000 | –
N#Cc1c(-c2cscn2)nc2[nH]nc(-c3ccc(N4CCOCC4)cc3)c2c1-c1ccc(N2CCNCC2)cc1 [Compound 281] | 1000 to 10000 | 1000 to 10000 | –
N#Cc1c(-c2ccc(O)cc2F)nc2[nH]nc(N)c2c1-c1ccc(N2CCC(N3CCCC3)CC2)cc1 [Compound 200] | 100 to 1000 | < 100 | –

SMILES | IC50 (karpas 299 cells; Homo sapiens, KARPAS-299, 72 h) [nM] | IC50 (ALK kinase) [nM] | IC50 (karpas 299 cells; 72 hours) [nM]
Cc1cc(O)ccc1-c1nc2[nH]nc(C)c2c(-c2ccc(N3CCNCC3)cc2)c1C#N [Compound 189] | 1000 to 10000 | 100 to 1000 | –
N#Cc1cc2c(N)n[nH]c2nc1-c1ccc(O)cc1F [Compound 105] | 1000 to 10000 | 100 to 1000 | –
COC(=O)c1c(-c2ccc(O)c(C)c2)nc2[nH]nc(C)c2c1-c1ccc(N2CCNCC2)cc1 [Compound 293] | < 100 | < 100 | –
N#Cc1c(-c2ccc(O)cc2F)nc2[nH]nc(N)c2c1-c1ccc(N2CCOCC2)o1 [Compound 183] | 1000 to 10000 | < 100 | –
Cc1n[nH]c2nc(-c3ccc(O)cc3F)c(C#N)cc12 [Compound 260] | 1000 to 10000 | 100 to 1000 | –
Cc1n[nH]c2nc(-c3ccc(O)cc3F)c(C#N)c(-c3ccc(N4CC[C@@H](O)C4)o3)c12 [Compound 156] | 100 to 1000 | < 100 | –
Cc1n[nH]c2nc(-c3cc(Cl)ccc3F)c(C#N)c(-c3ccc(N4CCNCC4)cc3)c12 [Compound 217] | 1000 to 10000 | 1000 to 10000 | –
Cc1n[nH]c2nc(-c3c(F)ccc(F)c3F)c(C#N)c(-c3ccc(N4CCC(N)CC4)o3)c12 [Compound 253] | 1000 to 10000 | 100 to 1000 | –
N#Cc1c(-c2ccc(O)cc2F)nc2[nH]nc(-c3ccc(C(F)(F)F)cc3)c2c1-c1ccc(N2CCNCC2)cc1 [Compound 244] | 100 to 1000 | < 100 | –
N#Cc1c(-c2cc(Cl)c(O)cc2F)nc2[nH]nc(N)c2c1-c1ccc(N2CCNCC2)cc1 [Compound 199] | > 10000 | < 100 | –
Cc1c(C#N)c(-c2ccc(O)cc2F)nc2[nH]nc(N)c12 [Compound 114] | 1000 to 10000 | 100 to 1000 | –
N#Cc1c(-c2ccc(O)cc2F)nc2[nH]nc(-c3ccco3)c2c1-c1ccc(N2CCNCC2)cc1 [Compound 197] | 100 to 1000 | < 100 | –
N#Cc1c(-c2cncs2)nc2[nH]nc(-c3ccco3)c2c1-c1ccc(N2CCNCC2)cc1 [Compound 285] | 1000 to 10000 | < 100 | –
Cc1c(C#N)c(-c2ccc(O)cc2)nc2[nH]nc(-c3cccc(N4CCNCC4)c3)c12 [Compound 106] | 1000 to 10000 | 100 to 1000 | –
N#Cc1c(-c2ccc(O)cc2F)nc2[nH]nc(-c3ccc(F)cc3)c2c1-c1ccc(N2CCNCC2)cc1 [Compound 218] | 1000 to 10000 | < 100 | –
N#Cc1c(-c2ccc(O)cc2F)nc2[nH]ncc2c1-c1ccc(CO)o1 [Compound 77] | 1000 to 10000 | 100 to 1000 | –
CNC1CCN(c2ccc(-c3n[nH]c4nc(-c5ccc(O)cc5F)c(C#N)c(C)c34)cn2)C1 (stereo not drawn) [Compound 123] | 1000 to 10000 | 100 to 1000 | –
Cc1n[nH]c2nc(-c3ccc(O)cc3F)c(C#N)c(-c3cnc(N4CCN(C)CC4)s3)c12 [Compound 167] | 1000 to 10000 | 100 to 1000 | –
Cc1n[nH]c2nc(-c3ccc(O)cc3F)c(C#N)c(C(=O)NCCN3CCOCC3)c12 [Compound 136] | > 10000 | 1000 to 10000 | –
N#Cc1c(-c2ccc(O)cc2F)nc2[nH]nc(N)c2c1-c1ccc(-c2ccc(S(N)(=O)=O)cc2)o1 [Compound 271] | > 10000 | 100 to 1000 | –
N#Cc1c(-c2ccc(CCl)cc2)nc2[nH]nc(-c3ccc(C(F)(F)F)cc3)c2c1-c1ccc(N2CCNCC2)cc1 [Compound 290] | 1000 to 10000 | 1000 to 10000 | –
Cc1n[nH]c2nc(-c3ccc(OC(=O)c4ccccc4)cc3F)c(C#N)c(-c3ccc(N4CCNCC4)cc3)c12 [Compound 239] | 100 to 1000 | 100 to 1000 | –
Cc1n[nH]c2nc(-c3c(F)cc(O)cc3F)c(C#N)c(-c3ccc(N4CCNCC4)cc3)c12 [Compound 154] | 100 to 1000 | < 100 | –
Cc1n[nH]c2nc(-c3ccc(O)cc3F)c(C#N)c(-c3csc(C4CCNCC4)n3)c12 [Compound 152] | – | 100 to 1000 | > 10000
Cc1n[nH]c2nc(-c3ccc(O)cc3F)c(C#N)c(-c3ccc(OCCCN(C)C)cc3)c12 [Compound 178] | 100 to 1000 | < 100 | –
Cc1c(C#N)c(-c2ccc(O)cc2F)nc2[nH]nc(-c3csc(C4CCNCC4)n3)c12 [Compound 108] | 1000 to 10000 | < 100 | –
Cc1n[nH]c2nc(-c3c(F)ccc(F)c3F)c(C#N)c(-c3ccc(N4CCNCC4)cc3)c12 [Compound 161] | > 10000 | 100 to 1000 | –

From patent US8889711B2, “Pyrazolopyridine derivatives as anticancer agent” (Pierre Fabre Medicament, priority 2009, dated 2014)
